From US6525001B1, “Substituted pyrimidine and pyridine herbicides” (Mid-American Commercialization Corporation, priority 1997, dated 2003)

Tests used:
Type in all cases: in vivo
Set-up in all cases: key: 0 is no effect; 10 is complete control
[1] = test system: bedstraw (Galium aparine); experiment: Test B pre-/postemergence; conditions: Postemergence
How it was run: (§1)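 Response scores run from 0, meaning no effect, to 10, meaning complete control, assigned by eye relative to controls twelve to sixteen days after spraying. Treatment was both preemergence on planted seed and postemergence on plants at the 1- to 4-leaf stage.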

[2] = test system: blackgrass (Alopecurus myosuroides); experiment: Test B pre-/postemergence
How it was run: as §1

[3] = test system: broadleaf signalgrass (Brachiaria decumbens); experiment: Test B pre-/postemergence
How it was run: as §1

[4] = test system: cocklebur (Xanthium strumarium); experiment: Test B pre-/postemergence
How it was run: as §1

corn (Zea mays) = experiment: Test B pre-/postemergence
How it was run: as §1

[5] = test system: crabgrass (Digitaria sanguinalis); experiment: Test B pre-/postemergence
How it was run: as §1

[6] = test system: giant foxtail (Setaria faberii); experiment: Test B pre-/postemergence
How it was run: as §1

[7] = test system: momingglory (Ipomoea hederacea); experiment: Test B pre-/postemergence
How it was run: as §1

[8] = test system: pigweed (Amaranthus retroflexus); experiment: Test B pre-/postemergence
How it was run: as §1

[9] = test system: purple nutsedge (Cyperus rotundus); experiment: Test B pre-/postemergence; conditions: Preemergence
How it was run: as §1

rape (Brassica napus) = experiment: Test B pre-/postemergence
How it was run: as §1

soybean (Glycine max) = experiment: Test B pre-/postemergence
How it was run: as §1

[10] = test system: sugar beet (Beta vulgaris); experiment: Test B pre-/postemergence
How it was run: as §1

[11] = test system: velvetleaf (Abutilon theophrasti); experiment: Test B pre-/postemergence
How it was run: as §1

[12] = test system: wheat (Triticum aestivum); experiment: Test B pre-/postemergence
How it was run: as §1

wild oat (Avena fatua) = experiment: Test B pre-/postemergence
How it was run: as §1

[13] = test system: bamyardgrass (Echinochloa crus-galli); experiment: Test B flood test
How it was run: (§2)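 Each value is a visual injury score relative to controls, with 10 meaning complete control and 0 no effect. Evaluation took place twelve to sixteen days after the 2-leaf-stage plants were treated and kept in the greenhouse.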

[14] = test system: duck salad (Heteranthera limosa); experiment: Test B flood test
How it was run: as §2

rice (Oryza sativa) = experiment: Test B flood test
How it was run: as §2

[15] = test system: smallflower flatsedge (Cyperus difformis); experiment: Test B flood test
How it was run: as §2

[16] = Preemergence, Rate 62 g/ha, scale of 0 to 10
[17] = Rate 62 g/ha, Postemergence (flood test)
[18] = Rate 125 g/ha, Postemergence section (flood test species)
[19] = Rate 250 g/ha, Postemergence (flood test species)

In the case of O=C(c1cccc(C(F)(F)F)c1)c1ccnc(-c2ccc(F)cc2F)n1 [Compound 76], the “Bedstraw plant response rating” value ([1]; Rate 62 g/ha) is reported as 0, the “Bedstraw plant response rating” value ([1]; Rate 125 g/ha) is reported as 0 and the “Plant response rating, Bedstraw” value ([1]; Rate 250 g/ha) is reported as 0. The “Plant response rating, Blackgrass” value [2, 16] was 0, the “Blackgrass plant response rating” value ([2]; Rate 62 g/ha, Postemergence) was 0 and the “Blackgrass plant response rating” value ([2]; Rate 125 g/ha, Postemergence) was 0. For the same molecule, the “Plant response rating, Blackgrass” value ([2]; Rate 125 g/ha, Preemergence) was 0, the “Plant response rating, Blackgrass” value ([2]; Rate 250 g/ha, Postemergence) was 0 and the “Plant response rating, Blackgrass” value ([2]; Rate 250 g/ha, Preemergence) was 0. The “B. signalgrass plant response rating” value ([3]; Rate 62 g/ha, Postemergence) was 0, the “B. signalgrass plant response rating” value ([3]; Rate 62 g/ha, Preemergence) was 0 and the “B. signalgrass plant response rating” value ([3]; Rate 125 g/ha, Postemergence) was 0. For the same molecule, the “Plant response rating, B. signalgrass” value ([3]; Rate 125 g/ha, Preemergence) was 0, the “Plant response rating, B. signalgrass” value ([3]; Rate 250 g/ha, Postemergence) was 0 and the “Plant response rating, B. signalgrass” value ([3]; Rate 250 g/ha, Preemergence) was 0. For the same molecule, the “Plant response rating, Cocklebur” value [4, 16] was 0, the “Cocklebur plant response rating” value ([4]; Rate 62 g/ha, Postemergence) was 1 and the “Cocklebur plant response rating” value ([4]; Rate 125 g/ha, Postemergence) was 3. For the same molecule, the “Plant response rating, Cocklebur” value ([4]; Rate 125 g/ha, Preemergence) was 0, the “Plant response rating, Cocklebur” value ([4]; Rate 250 g/ha, Postemergence) was 4 and the “Plant response rating, Cocklebur” value ([4]; Rate 250 g/ha, Preemergence) was 0. For the same molecule, the “Plant response rating, Corn” value (corn (Zea mays); [16]) was 0, the “Corn plant response rating” value (corn (Zea mays); Rate 62 g/ha, Postemergence) was 1 and the “Corn plant response rating” value (corn (Zea mays); Rate 125 g/ha, Postemergence) was 1. For the same molecule, the “Plant response rating, Corn” value (corn (Zea mays); Rate 125 g/ha, Preemergence) was 0, the “Plant response rating, Corn” value (corn (Zea mays); Rate 250 g/ha, Postemergence) was 1 and the “Plant response rating, Corn” value (corn (Zea mays); Rate 250 g/ha, Preemergence) was 0. The “Plant response rating, Crabgrass” value [5, 16] was 0, the “Crabgrass plant response rating” value ([5]; Rate 62 g/ha, Postemergence) was 0 and the “Crabgrass plant response rating” value ([5]; Rate 125 g/ha, Postemergence) was 0. For the same molecule, the “Plant response rating, Crabgrass” value ([5]; Rate 125 g/ha, Preemergence) was 0, the “Plant response rating, Crabgrass” value ([5]; Rate 250 g/ha, Postemergence) was 1 and the “Plant response rating, Crabgrass” value ([5]; Rate 250 g/ha, Preemergence) was 0. The “Plant response rating, Giant foxtail” value [6, 16] was 0, the “Giant foxtail plant response rating” value ([6]; Rate 62 g/ha, Postemergence) was 0 and the “Giant foxtail plant response rating” value ([6]; Rate 125 g/ha, Postemergence) was 0. For the same molecule, the “Plant response rating, Giant foxtail” value ([6]; Rate 125 g/ha, Preemergence) was 0, the “Plant response rating, Giant foxtail” value ([6]; Rate 250 g/ha, Postemergence) was 1 and the “Plant response rating, Giant foxtail” value ([6]; Rate 250 g/ha, Preemergence) was 0. The “Plant response rating, Morningglory” value [7, 16] was 0, the “Morningglory plant response rating” value ([7]; Rate 62 g/ha, Postemergence) was 0 and the “Morningglory plant response rating” value ([7]; Rate 125 g/ha, Postemergence) was 0. The “Plant response rating, Morningglory” value ([7]; Rate 125 g/ha, Preemergence) was 0, the “Plant response rating, Morningglory” value ([7]; Rate 250 g/ha, Postemergence) was 1 and the “Plant response rating, Morningglory” value ([7]; Rate 250 g/ha, Preemergence) was 0. The “Plant response rating, Redroot pigweed” value [8, 16] was 0, the “Redroot pigweed plant response rating” value ([8]; Rate 62 g/ha, Postemergence) was 1 and the “Redroot pigweed plant response rating” value ([8]; Rate 125 g/ha, Postemergence) was 1. For the same molecule, the “Plant response rating, Redroot pigweed” value ([8]; Rate 125 g/ha, Preemergence) was 0, the “Plant response rating, Redroot pigweed” value ([8]; Rate 250 g/ha, Postemergence) was 2 and the “Plant response rating, Redroot pigweed” value ([8]; Rate 250 g/ha, Preemergence) was 0. The “Plant response rating, Nutsedge” value ([9]; Rate 62 g/ha, scale of 0 to 10) was 0, the “Plant response rating, Nutsedge” value ([9]; Rate 125 g/ha) was 0 and the “Plant response rating, Rape” value (rape (Brassica napus); [16]) was 0. The “Rape plant response rating” value (rape (Brassica napus); Rate 62 g/ha, Postemergence) was 1, the “Rape plant response rating” value (rape (Brassica napus); Rate 125 g/ha, Postemergence) was 2 and the “Plant response rating, Rape” value (rape (Brassica napus); Rate 125 g/ha, Preemergence) was 0. For the same molecule, the “Plant response rating, Rape” value (rape (Brassica napus); Rate 250 g/ha, Postemergence) was 2, the “Plant response rating, Rape” value (rape (Brassica napus); Rate 250 g/ha, Preemergence) was 0 and the “Plant response rating, Soybean” value (soybean (Glycine max); [16]) was 0. The “Soybean plant response rating” value (soybean (Glycine max); Rate 62 g/ha, Postemergence) was 0, the “Soybean plant response rating” value (soybean (Glycine max); Rate 125 g/ha, Postemergence) was 0 and the “Plant response rating, Soybean” value (soybean (Glycine max); Rate 125 g/ha, Preemergence) was 0. The “Plant response rating, Soybean” value (soybean (Glycine max); Rate 250 g/ha, Postemergence) was 1, the “Plant response rating, Soybean” value (soybean (Glycine max); Rate 250 g/ha, Preemergence) was 0 and the “Plant response rating, Sugarbeets” value [10, 16] was 0. The “Sugarbeets plant response rating” value ([10]; Rate 62 g/ha, Postemergence) was 1, the “Sugarbeets plant response rating” value ([10]; Rate 125 g/ha, Postemergence) was 2 and the “Plant response rating, Sugarbeets” value ([10]; Rate 125 g/ha, Preemergence) was 0. The “Plant response rating, Sugarbeets” value ([10]; Rate 250 g/ha, Postemergence) was 3, the “Plant response rating, Sugarbeets” value ([10]; Rate 250 g/ha, Preemergence) was 0 and the “Plant response rating, Velvetleaf” value [11, 16] was 0. The “Velvetleaf plant response rating” value ([11]; Rate 62 g/ha, Postemergence) was 0, the “Velvetleaf plant response rating” value ([11]; Rate 125 g/ha, Postemergence) was 1 and the “Plant response rating, Velvetleaf” value ([11]; Rate 125 g/ha, Preemergence) was 0. The “Plant response rating, Velvetleaf” value ([11]; Rate 250 g/ha, Postemergence) was 1, the “Plant response rating, Velvetleaf” value ([11]; Rate 250 g/ha, Preemergence) was 0 and the “Plant response rating, Wheat” value [12, 16] was 0. For the same molecule, the “Wheat plant response rating” value ([12]; Rate 62 g/ha, Postemergence) was 0, the “Wheat plant response rating” value ([12]; Rate 125 g/ha, Postemergence) was 0 and the “Plant response rating, Wheat” value ([12]; Rate 125 g/ha, Preemergence) was 0. The “Plant response rating, Wheat” value ([12]; Rate 250 g/ha, Postemergence) was 0, the “Plant response rating, Wheat” value ([12]; Rate 250 g/ha, Preemergence) was 0 and the “Plant response rating, Wild oats” value (wild oat (Avena fatua); [16]) was 0. The “Wild oats plant response rating” value (wild oat (Avena fatua); Rate 62 g/ha, Postemergence) was 0, the “Wild oats plant response rating” value (wild oat (Avena fatua); Rate 125 g/ha, Postemergence) was 0 and the “Plant response rating, Wild oats” value (wild oat (Avena fatua); Rate 125 g/ha, Preemergence) was 0. The “Plant response rating, Wild oats” value (wild oat (Avena fatua); Rate 250 g/ha, Postemergence) was 0, the “Plant response rating, Wild oats” value (wild oat (Avena fatua); Rate 250 g/ha, Preemergence) was 0 and the “Barnyardgrass plant response rating” value [13, 17] was 0. The “Barnyardgrass plant response rating” value [13, 18] was 0, the “Plant response rating, Barnyardgrass” value [13, 19] was 0 and the “Ducksalad plant response rating” value [14, 17] was 0. For the same molecule, the “Ducksalad plant response rating” value [14, 18] was 0, the “Plant response rating, Ducksalad” value [14, 19] was 0 and the “Rice plant response rating” value (rice (Oryza sativa); [17]) was 0. The “Rice plant response rating” value (rice (Oryza sativa); [18]) was 0, the “Plant response rating, Rice” value (rice (Oryza sativa); [19]) was 0 and the “S. Flatsedge plant response rating” value [15, 17] was 0. For the same molecule, the “S. Flatsedge plant response rating” value [15, 18] was 0 and the “Plant response rating, S. Flatsedge” value [15, 19] was 0.
